Reference: patent publication EP0236913A2, “Aryl-azolylmethyl-benzocyclo-alkene derivatives, process for their preparation and their use” (HOECHST AKTIENGESELLSCHAFT, priority 1986, dated 1987)
Values after ≈ are worked out from the molar mass of the structure shown.

How the values were obtained:
[1] = system: Weizenmehltau (Erysiphe graminis); assay: wheat powdery mildew, curative spray test on wheat plants (Versuch I); format: in vivo; settings: untreated infected control = 100 %
Description: Weizenpflanzen werden im 3-Blattstadium mit Konidien des Weizenmehltaus (Erysiphe graminis) stark inokuliert und in einem Gewächshaus bei 20°C und einer relativen Luftfeuchte von 90 - 95% aufgestellt. 3 Tage nach Inokulation werden die Pflanzen mit den in Tabelle 6 aufgeführten Verbindungen in den angegebenen Wirkstoffkonzentrationen gleichmäßig benetzt. Nach einer Inkubationszeit von 10 Tagen werden die Pflanzen auf den Befall mit Weizenmehltau untersucht. Der Befallsgrad wird ausgedrückt in % befallener Blattfläche, bezogen auf unbehandelte, infizierte Kontrollpflanzen (= 100% Befall). Das Ergebnis ist in der Tabelle 6 zusammengefaßt.

[2] = system: Pseudo-cercosporella herpotrichoides; assay: agar plate test with Pseudocercosporella cultures (Versuch V); format: cell-based; settings: 144 h, 6 days after inoculation, read-out: Wirkungsgrad gegenüber Pseudo-cercosporella herpotrichoides in %; for inhibition of growth at 125 µg/mL: 125 ppm Wirkstoff in Biomalzagar; for inhibition of growth at 250 µg/mL: 250 ppm Wirkstoff in Biomalzagar; for inhibition of growth at 500 µg/mL: 500 ppm Wirkstoff in Biomalzagar
Description: Biomalzagar wurde mit den beanspruchten Verbindungen in den in Tabelle 10 angegebenen Konzentrationen versetzt. Nach dem Erstarren des Agars erfolgte die Beimpfung mit Pseudocercosporella-Kulturen. Jeweils 20 µl einer Sporensuspension wurden auf das Zentrum der Agarplatte aufgebracht. Die Versuche wurden 6 Tage nach Beimpfung ausgewertet. Der Wirkungsgrad der Wirkstoffe wird ausgedrückt in % im Vergleich zur Kontrolle (Agarmedium ohne Wirkstoff).

[3] = acute oral toxicity (LD-50); settings: in vivo, per os
[4] = system: Pentetrazol-induzierte Krämpfe; assay: antagonism of pentetrazol-induced convulsions (PTZ); format: in vivo, Maus; settings: mouse; pentetrazol 125 mg/kg s.c. 1 h after oral test substance; tonic extensor convulsions; read-out: ED50 (mg/kg p.o.) Ptz
Description: Antagonismus gegen Pentetrazol-induzierte Krämpfe (Maus) (PTZ)
Methode: • Gruppen von 10 männlichen Mäusen (Stamm: NMRI, SPF-71, KF) im Gewicht von 18-22 g werden in diesem Versuch verwendet. Die zu prüfenden Substanzen werden in einer 1 %igen Aufschwemmung von Tylose (Methyl-hydroxy-ethyl-cellulose) in Wasser suspendiert und per Schlundsonde in einem Volumen von 10 ml/kg Körpergewicht oral verabreicht. Die Kontrollgruppe erhält ein entsprechendes Volumen Tylosesuspension ohne Prüfsubstanz.
Pentetrazol (Cardiazol (R)) wird in wäßriger Lösung in einer Dosis von 125 mg/kg Körpergewicht 1 Stunde nach Verabreichung der Prüfsubstanzen subcutan injiziert. Diese Dosis erzeugt bei 90-100 % der Kontrolltiere innerhalb der Beobachtungszeit von 60 Minuten nach der Injektion tonische Extensorkrämpfe der hinteren Extremitäten. Als Schutzwirkung der Prüfsubstanz wird gewertet, wenn die Anzahl der krampfenden Tiere gegenüber der Kontrollgruppe vermindert ist.
Bei vorhandener Schutzwirkung der Prüfsubstanz wird eine mittlere effektive Dosis (ED-50) grafisch (Litchfield and Wilcoxon) oder rechnerisch(Probitanalyse) ermittelt.
Literatur: E.A. SWINYARD, J.Pharmacol.Exp. Ther. 106, (1952), 319-330

[5] = system: Elektroschock-induzierte Krämpfe; assay: antagonism of electroshock-induced convulsions (ECS); format: in vivo, Maus; settings: mouse; corneal electroshock 1 h after oral test substance; tonic extensor convulsions; read-out: ED50 (mg/kg p.o.) ECS
Description: Antagonismus gegen Elektroschock-induzierte Krämpfe (Maus) (ECS)
Methode: • Gruppen von 6 männlichen Mäusen (Stamm: NMRI, SPF-71, KF) im Gewicht von 18-22 g werden in diesem Versuch verwendet. Die zu prüfenden Substanzen werden in einer 1 %igen Aufschwemmung von Tylose (Methyl-hydroxy-ethyl-cellulose) in Wasser suspendiert und per Schlundsonde in einem Volumen von 10 ml/kg Körpergewicht oral verabreicht. Die Kontrollgruppe erhält ein entsprechendes Volumen Tylosesuspension ohne Prüfsubstanz.
Eine Stunde nach Prüfsubstanzgabe wird den.Tieren über Cornea-Elektroden ein Elektroschock verabreicht (Stromstärke 12-22 mA, Dauer 0.2 sec. 50 Hz), nachdem vorher an einer zweiten Kontrollgruppe die Stromstärke ermittelt worden war, die bei 100 % der Tiere einen tonischen Extensorkrampf der hinteren Extremitäten hervorruft.
Die Anzahl der durch die Prüfsubstanz vor einem Extensorkrampf geschützten Tiere dient als Maß der antikonvulsiven Wirkung in diesem Test.
Bei vorhandener Schutzwirkung der Prüfsubstanz wird eine mittlere effektive Dosis (ED-50) grafisch (Litchfield and Wilcoxon) oder rechnerisch (Probitanalyse) ermittelt.
Literatur: E.A. SWINYARD, In: Experimental Models of Epilepsy, Raven Press, New York, 1972, p. 433-458.

[6] = system: Candida albicans (200/175); assay: in vitro antimycotic serial dilution test (microtitration technique); format: cell-based; settings: read-out: Minimale Hemmkonzentration
[7] = system: Trichophyton rubrum (101/58); assay: as above; format: cell-based; settings: read-out: Minimale Hemmkonzentration
From the text: (§1) Die in vitro-Prüfungen auf antimykotische Wirkung wurden im Reihenverdünnungstest an Hauptpilzen (Trichophyton mentagrophytes, Trichophyton rubrum, Microsporum canis), Hefepilzen (Candida Albicans) und Schimmelpilzen (Aspergillus niger) durchgeführt (Material und Methodik: Mikrotitrationstechnik veröffentlicht in Mykosen 27,14 (1984). Wie aus Tabelle 4 ersichtlich, zeigen bei diesen in vitro-Prüfungen die erfindungsgemäßen Verbindungen gute antimykotische Eigenschaften,die denjenigen der Referenzsubstand Clotrimazol überlegen sind.

[8] = system: Trichophyton mentagrophytes (100/25); assay: as above; format: cell-based; settings: read-out: Minimale Hemmkonzentration
From the text: as §1

[9] = system: Aspergillus niger (500/284); assay: as above; format: cell-based; settings: read-out: Minimale Hemmkonzentration
From the text: as §1

[10] = system: Microsporum canis (150/120); assay: as above; format: cell-based; settings: read-out: Minimale Hemmkonzentration
From the text: as §1

[11] = system: Trichophyton mentagrophytes; assay: local in vivo efficacy in experimentally infected guinea pigs, dermal treatment; design: species or system Meerschweinchen (Stamm Pirbright white); settings: Dermal 5 x 0.1 %; for Mykosen (Durchmesser in mm) Präparat + Vehikel x2: from day 3 after infection, mean, n = 6 measurements; for Mykosen Differenz (%): difference relative to Clotrimazol = 100; for Mykosen (Durchmesser in mm) Differenz x1 - x2: vehicle control side minus treated side
From the text: Als Beispiel für die hohe lokale in vivo Wirksamkeit der erfindungsgemäßen Verbindungen werden Behandlungsergebnisse an experimentell mit Trichophyton mentagrophytes infizierten Labortieren angeführt.
Zur Feststellung der lokalen Wirksamkeit wurden jeweils zwei 450-500 g schwere Meerschweinchen (Stamm Pirbright white) mit 1,5 x 10^4 Konidien/Tier in die Epidermis, verteilt auf 6 Infektionspunkte, infiziert.
Die Behandlung der Tiere erfolgte dermal ab dem 3. Tag nach der Infektion an 5 aufeinanderfolgenden Tagen durch Aufbringen einer 0,1 %igen Präparatlösung auf 3 Infektionsstellen einer Rückenseite. Die andere Rückenseite wurde mit Vehikel ohne Präparat auf gleiche Weise behandelt.
Neben den mit den erfindungsgemäßen Substanzen behandelten Tieren wurden zwei Tiere mit der Referenzsubstanz Clotrimazol behandelt, zwei Tiere blieben nach der Infektion unbehandelt.

[12] = 60 mg Wirkstoff/Liter Spritzbrühe
[13] = 125 mg Wirkstoff/Liter Spritzbrühe
[14] = 250 mg Wirkstoff/Liter Spritzbrühe
[15] = 500 mg Wirkstoff/Liter Spritzbrühe

| Structure (SMILES) | mit Weizenmehltau befallene Blattfläche in % [1, 12] | mit Weizenmehltau befallene Blattfläche in % [1, 13] | mit Weizenmehltau befallene Blattfläche in % [1, 14] | mit Weizenmehltau befallene Blattfläche in % [1, 15] | inhibition of growth at 125 µg/mL [2] | inhibition of growth at 250 µg/mL [2] | inhibition of growth at 500 µg/mL [2] | LD50 [3] | ED50 [4] | ED50 [5] | MIC [6] | MIC [7] | MIC [8] | MIC [9] | MIC [10] | Mykosen (Durchmesser in mm) Präparat + Vehikel x2 [11] | Mykosen Differenz (%) [11] | Mykosen (Durchmesser in mm) Differenz x1 - x2 [11] |
| --- | --- | --- | --- | --- | --- | --- | --- | --- | --- | --- | --- | --- | --- | --- | --- | --- | --- | --- |
| CC1(C)CC(O)(Cn2ccnc2)c2ccccc21 (centres unmarked) [Beispiel 36, 1-(1H-Imidazol-1-ylmethyl)-3,3-dimethyl-indan-1-ol] | 0-3% | 0-3% | 0% | 0% | – | – | – | – | – | – | – | – | – | – | – | – | – | – |
| c1ccc(-c2ccc(C3(Cn4ccnc4)CCc4ccccc43)cc2)cc1 (centres unmarked) [Verbindung 13 (Tab. 1)] | – | – | – | – | 100% | 100% | 100% | > 300 mg/kg | 16 mg/kg | 17.3 mg/kg | – | – | – | – | – | – | – | – |
| Clc1ccc(C2(Cn3ccnc3)CCCc3ccccc32)cc1 (centres unmarked) [Verbindung 20 (Tab. 1)] | 3% | 0-3% | 0% | 0% | – | – | – | – | – | – | 1.95 mg/L (≈ 6.04 µM) | 0.97 mg/L (≈ 3 µM) | 0.97 mg/L (≈ 3 µM) | 0.97 mg/L (≈ 3 µM) | 0.97 mg/L (≈ 3 µM) | 4.3 mm | (138.5) % | 9.7 mm |
| OC1(Cn2ccnc2)CCc2cc(Oc3ccccc3)ccc21 (centres unmarked) [Verbindung 11 (Tab. 3)] | – | – | – | – | 100% | 100% | 100% | – | 9.3 mg/kg | – | – | – | – | – | – | – | – | – |
| Clc1ccccc1C(c1ccccc1)(c1ccccc1)n1ccnc1 [Clotrimazol, reference compound] | – | – | – | – | – | – | – | – | – | – | 3.9 mg/L (≈ 11.3 µM) | 0.97 mg/L (≈ 2.81 µM) | 0.97 mg/L (≈ 2.81 µM) | 1.95 mg/L (≈ 5.65 µM) | 0.97 mg/L (≈ 2.81 µM) | 7.6 mm | (100) % | 7 mm |
| c1ccc(Oc2ccc(C3(Cn4ccnc4)CCc4ccccc43)cc2)cc1 (centres unmarked) [Verbindung 67 (Tab. 1)] | – | – | – | – | – | – | – | – | – | – | 1.95 mg/L (≈ 5.32 µM) | 0.97 mg/L (≈ 2.65 µM) | 0.97 mg/L (≈ 2.65 µM) | 1.95 mg/L (≈ 5.32 µM) | 0.06 mg/L (≈ 0.164 µM) | 3.2 mm | (107.1) % | 7.5 mm |
| Fc1ccc(C2(Cn3ccnc3)CCCc3ccccc32)c(F)c1 (centres unmarked) [Verbindung 32 (Tab. 1)] | – | – | – | – | 100% | 100% | 100% | – | 17.2 mg/kg | 60 mg/kg | – | – | – | – | – | – | – | – |
| Fc1cc(Cl)ccc1C1(Cn2ccnc2)CCCc2ccccc21 (centres unmarked) [Verbindung 33 (Tab. 1)] | – | – | – | – | 100% | 100% | 100% | – | 55 mg/kg | 24.6 mg/kg | – | – | – | – | – | – | – | – |
| c1ccc(Oc2ccc(C3(Cn4ccnc4)CCCc4ccccc43)cc2)cc1 (centres unmarked) [Verbindung 70 (Tab. 1)] | – | – | – | – | – | – | – | – | – | – | 0.97 mg/L (≈ 2.55 µM) | 0.12 mg/L (≈ 0.315 µM) | 0.48 mg/L (≈ 1.26 µM) | 0.97 mg/L (≈ 2.55 µM) | 0.06 mg/L (≈ 0.158 µM) | 3 mm | (182.8) % | 12.8 mm |
| Cc1ccc(C2(Cn3ccnc3)CCc3ccccc32)cc1C (centres unmarked) [Verbindung 53 (Tab. 1)] | – | – | – | – | 100% | 100% | 100% | > 300 mg/kg | 30 mg/kg | 35.1 mg/kg | – | – | – | – | – | – | – | – |
| OC1(Cn2ccnc2)CCc2ccccc21 (centres unmarked) [Verbindung 1 (Tab. 3), 1-Hydroxy-1-(1H-imidazol-1-ylmethyl)-indan] | – | – | – | – | – | – | – | 300 mg/kg | 70 mg/kg | 18.2 mg/kg | – | – | – | – | – | – | – | – |
| c1ccc(-c2ccc(C3(Cn4ccnc4)CCCc4ccccc43)cc2)cc1 (centres unmarked) [Verbindung 60 (Tab. 1)] | – | – | – | – | 100% | 100% | 100% | – | – | – | 0.48 mg/L (≈ 1.32 µM) | 0.06 mg/L (≈ 0.165 µM) | 0.24 mg/L (≈ 0.658 µM) | 1.95 mg/L (≈ 5.35 µM) | 0.007 mg/L (≈ 0.0192 µM) | 4.5 mm | (157.1) % | 11 mm |
